The assay addresses T1, Wee1 kinase (Homo sapiens, UniProt P30291).
T1 construct: purchased Carnabio 05-177
The assay is described as follows: Wee1 time-resolved fluorescence equilibrium binding assay (probe displacement). The following applies: GST-tagged-Wee1 kinase 2 nM, fluorescent probe 300 nM, 1 hour incubation; read-out: Wee-1 binding (Ki nM). As to the method: Wee1 kinase was assayed using a time-resolved fluorescence equilibrium binding assay monitoring displacement of a rapidly reversible Oregon Green-labeled ATP-competitive kinase probe (N-(2-(2-(2-(4-(4-(5-chloro-4-(2-(1-hydroxycyclobutyl)thiazol-5-yl)-1H-pyrrolo[2,3-b]pyridin-2-yl)phenyl)piperazin-1-yl)ethoxy)ethoxy)ethyl)-2′,7′-difluoro-3′,6′-dihydroxy-3-oxo-3H-spiro[isobenzofuran-1,9′-xanthene]-5-carboxamide) by competitive Wee1 inhibitors.
T1 sequence (P30291 whole entry): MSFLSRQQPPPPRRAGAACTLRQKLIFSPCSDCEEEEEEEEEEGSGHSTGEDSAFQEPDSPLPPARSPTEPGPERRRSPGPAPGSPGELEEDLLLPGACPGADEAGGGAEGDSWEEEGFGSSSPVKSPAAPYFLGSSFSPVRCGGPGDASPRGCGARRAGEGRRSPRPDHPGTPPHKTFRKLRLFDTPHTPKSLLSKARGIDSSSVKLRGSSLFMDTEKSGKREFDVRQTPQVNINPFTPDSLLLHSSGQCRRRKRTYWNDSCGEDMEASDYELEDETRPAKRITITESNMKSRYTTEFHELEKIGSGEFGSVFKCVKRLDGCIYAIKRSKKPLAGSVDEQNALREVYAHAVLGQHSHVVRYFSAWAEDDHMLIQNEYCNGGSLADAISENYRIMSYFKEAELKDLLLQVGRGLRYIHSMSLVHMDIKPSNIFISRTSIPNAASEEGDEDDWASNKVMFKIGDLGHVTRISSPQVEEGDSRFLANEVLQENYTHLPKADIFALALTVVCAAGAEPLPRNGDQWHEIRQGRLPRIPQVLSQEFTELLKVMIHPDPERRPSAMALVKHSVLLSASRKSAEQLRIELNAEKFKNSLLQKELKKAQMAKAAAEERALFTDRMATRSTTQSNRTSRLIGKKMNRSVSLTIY
By Ki is commonly meant the equilibrium dissociation constant of an inhibitor or competing ligand from its target. Take `CN1Cc2cc(Nc3ncc4c(=O)c(-c5c(Cl)cccc5Cl)c[nH]c4n3)ccc2C2(CC2)C1` [Example 30, 6-(2,6-dichlorophenyl)-2-[(2′-methyl-2′,3′-dihydro-1′H-spiro[cyclopropane-1,4′-isoquinolin]-7′-yl)amino]pyrido[2,3-d]pyrimidin-5(8H)-one]: the Ki amounted to 0.2 nM.
Regarding `CCn1cc(-c2c(Cl)cccc2Cl)c(=O)c2cnc(Nc3ccc(N4CCN(C)CC4)cc3)nc21` [Example 31, 6-(2,6-dichlorophenyl)-8-ethyl-2-{[4-(4-methylpiperazin-1-yl)phenyl]amino}pyrido[2,3-d]pyrimidin-5(8H)-one], the Ki came out at 0.6 nM.
`CCn1cc(-c2c(Cl)cccc2Cl)c(=O)c2cnc(Nc3ccc4c(c3)CN(C)CC43CC3)nc21` [Example 32, 6-(2,6-dichlorophenyl)-8-ethyl-2-[(2′-methyl-2′,3′-dihydro-1′H-spiro[cyclopropane-1,4′-isoquinolin]-7′-yl)amino]pyrido[2,3-d]pyrimidin-5(8H)-one]: the Ki came to 0.3 nM.
As to `CN1CCN(c2ccc(Nc3ncc4c(=O)c(-c5c(F)cccc5Cl)cn(C)c4n3)cc2)CC1` [Example 33, 6-(2-chloro-6-fluorophenyl)-8-methyl-2-{[4-(4-methylpiperazin-1-yl)phenyl]amino}pyrido[2,3-d]pyrimidin-5(8H)-one], the Ki was 1.5 nM.
For the molecule `CN1Cc2cc(Nc3ncc4c(=O)c(-c5c(F)cccc5Cl)cn(C)c4n3)ccc2C2(CC2)C1` [Example 34, 6-(2-chloro-6-fluorophenyl)-8-methyl-2-[(2′-methyl-2′,3′-dihydro-1′H-spiro[cyclopropane-1,4′-isoquinolin]-7′-yl)amino]pyrido[2,3-d]pyrimidin-5(8H)-one], the Ki was 0.4 nM.
Regarding `COc1ccc(Cn2cc(-c3c(F)cccc3Cl)c(=O)c3cnc(Nc4ccc(N5CCN(C)CC5)cc4)nc32)cc1` [Example 35, 6-(2-chloro-6-fluorophenyl)-8-(4-methoxybenzyl)-2-{[4-(4-methylpiperazin-1-yl)phenyl]amino}pyrido[2,3-d]pyrimidin-5(8H)-one], the Ki came to 66 nM.
Take `COc1ccc(Cn2cc(-c3c(F)cccc3Cl)c(=O)c3cnc(Nc4ccc5c(c4)CN(C)CC54CC4)nc32)cc1` [Example 36, 6-(2-chloro-6-fluorophenyl)-8-(4-methoxybenzyl)-2-[(2′-methyl-2′,3′-dihydro-1′H-spiro[cyclopropane-1,4′-isoquinolin]-7′-yl)amino]pyrido[2,3-d]pyrimidin-5(8H)-one]: the inhibition constant Ki was 33 nM.
The same measure for `CN1CCN(c2ccc(Nc3ncc4c(=O)c(-c5c(F)cccc5Cl)cn(C5CC5)c4n3)cc2)CC1` [Example 37, 6-(2-chloro-6-fluorophenyl)-8-cyclopropyl-2-{[4-(4-methylpiperazin-1-yl)phenyl]amino}pyrido[2,3-d]pyrimidin-5(8H)-one]: 2.4 nM.
As to `CN1Cc2cc(Nc3ncc4c(=O)c(-c5c(F)cccc5Cl)cn(C5CC5)c4n3)ccc2C2(CC2)C1` [Example 38, 6-(2-chloro-6-fluorophenyl)-8-cyclopropyl-2-[(2′-methyl-2′,3′-dihydro-1′H-spiro[cyclopropane-1,4′-isoquinolin]-7′-yl)amino]pyrido[2,3-d]pyrimidin-5(8H)-one], the Ki was determined as 1.3 nM.
As to `CN1Cc2cc(Nc3ncc4c(=O)c(-c5c(F)cccc5Cl)c[nH]c4n3)ccc2C2(CC2)C1` [Example 39, 6-(2-chloro-6-fluorophenyl)-2-[(2′-methyl-2′,3′-dihydro-1′H-spiro[cyclopropane-1,4′-isoquinolin]-7′-yl)amino]pyrido[2,3-d]pyrimidin-5(8H)-one], the Ki stood at 0.7 nM.
Consider `CN1CCN(c2ccc(Nc3ncc4c(=O)c(-c5c(F)cccc5Cl)c[nH]c4n3)cc2)CC1` [Example 40, 6-(2-chloro-6-fluorophenyl)-2-{[4-(4-methylpiperazin-1-yl)phenyl]amino}pyrido[2,3-d]pyrimidin-5(8H)-one], for which the inhibitory constant (Ki) worked out at 2.4 nM.

Values taken from US9181239B2, “Pyridopyrimidinone inhibitors of kinases” (AbbVie Inc., priority 2011, dated 2015).
